From patent US10239849B2 (Merck Sharp & Dohme Corp., priority 2015, dated 2019)

How the values were obtained:
[1] = biological target: T1, glutathione-S-transferase (GST) tagged LXRbeta LBD (ligand binding domain) (Homo sapiens, UniProt P55055); test: LanthaScreen TR-FRET Liver X Receptor Coactivator Assay, LXR beta-LBD; format: biochemical; details: for Emax: efficacy in relation to reference dual agonist T1317, read-out: LXR beta activity at max dose (%) (Emax); for EC50: potency (Inflection Point) of co-activator recruitment, TR-FRET, read-out: LXR beta IP
T1 construct: purchased Invitrogen pv4658.pps
T1 sequence (P55055 222-460 limits assumed): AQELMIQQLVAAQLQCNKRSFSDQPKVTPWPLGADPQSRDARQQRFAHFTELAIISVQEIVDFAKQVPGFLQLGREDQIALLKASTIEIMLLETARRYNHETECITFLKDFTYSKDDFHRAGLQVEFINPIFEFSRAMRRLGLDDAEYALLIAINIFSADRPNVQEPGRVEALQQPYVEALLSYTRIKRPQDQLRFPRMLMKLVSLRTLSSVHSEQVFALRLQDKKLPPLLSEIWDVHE
Procedure, shortened: (§1)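 Measures ligand-driven coactivator peptide binding by time-resolved energy transfer between terbium-tagged anti-GST antibody and fluorescein-labelled peptide. Incubation is at room temperature.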

[2] = biological target: T2, glutathione-S-transferase (GST) tagged LXRalpha LBD (ligand binding domain) (Homo sapiens, UniProt Q13133); test: LanthaScreen TR-FRET Liver X Receptor Coactivator Assay, LXR alpha-LBD; format: biochemical; details: for Emax: efficacy in relation to reference dual agonist T1317, read-out: LXR alpha activity at max dose (%) (Emax); for EC50: read-out: LXR alpha IP
T2 construct: purchased Invitrogen pv4655
T2 sequence (Q13133 209-447 limits assumed): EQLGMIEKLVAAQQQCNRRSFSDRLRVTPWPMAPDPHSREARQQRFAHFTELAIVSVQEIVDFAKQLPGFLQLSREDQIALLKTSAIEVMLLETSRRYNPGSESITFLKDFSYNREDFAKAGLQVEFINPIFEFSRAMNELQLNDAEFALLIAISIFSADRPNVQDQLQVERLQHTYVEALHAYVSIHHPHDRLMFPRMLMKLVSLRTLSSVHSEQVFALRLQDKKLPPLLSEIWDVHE
Procedure, shortened: as §1

[3] = potency (Inflection Point) of co-activator recruitment, TR-FRET

Row | Structure (SMILES) | Emax [1] [%] | EC50 [1] [nM] | Emax [2] [%] | EC50 [2, 3] [nM] | LXR alpha IP (nM) [2, 3]
1 | CN(CC(O)CO)C(=O)c1ccc(-c2cnc(N3CCN(C(=O)OC(C)(C)C)CC3)c(C#N)c2)cc1Cl (centres unmarked) [Example 5-18, tert-butyl 4-(5-{3-chloro-4-[(2,3-dihydroxypropyl) (methyl)carbamoyl]phenyl}-3-cyanopyridin-2-yl)piperazine-1-carboxylate] | 70 | 301 | 40 | 8600 | –
2 | CC(C)(C)OC(=O)N1CCN(c2ncc(-c3ccc(C(=O)N(CCO)CCO)c(Cl)c3)cc2C#N)CC1 [Example 5-19, tert-butyl 4-(5-{4-[bis(2-hydroxyethyl)carbamoyl]-3-chlorophenyl}-3-cyanopyridin-2-yl)piperazine-1-carboxylate] | 93 | 102 | 68 | 2980 | –
3 | CC(C)(C)OC(=O)N1CCN(c2ncc(-c3ccc(C(=O)N(CCCO)C4CC4)c(Cl)c3)cc2C#N)CC1 [Example 5-20, tert-butyl 4-(5-{3-chloro-4-[cyclopropyl(3-hydroxypropyl)carbamoyl]phenyl}-3-cyanopyridin-2-yl)piperazine-1-carboxylate] | 55 | 565 | 31 | 4070 | –
4 | CN(CCn1ccnc1)C(=O)c1ccc(-c2cnc(N3CCN(C(=O)OC(C)(C)C)CC3)c(C#N)c2)cc1Cl [Example 5-21, tert-butyl 4-[5-(3-chloro-4-{[2-(1H-imidazol-1-yl)ethyl](methyl)carbamoyl}phenyl)-3-cyanopyridin-2-yl]piperazine-1-carboxylate] | 81 | 931 | 37 | 9240 | –
5 | CN(Cc1cnn(C)c1)C(=O)c1ccc(-c2cnc(N3CCN(C(=O)OC(C)(C)C)CC3)c(C#N)c2)cc1Cl [Example 5-22, tert-butyl 4-[5-(3-chloro-4-{methyl[(1-methyl-1H-pyrazol-4-yl)methyl]carbamoyl}phenyl)-3-cyanopyridin-2-yl]piperazine-1-carboxylate] | 65 | 382 | 34 | 9700 | –
6 | CN(CCn1cccn1)C(=O)c1ccc(-c2cnc(N3CCN(C(=O)OC(C)(C)C)CC3)c(C#N)c2)cc1Cl [Example 5-23, tert-butyl 4-[5-(3-chloro-4-{methyl[2-(1H-pyrazol-1-yl)ethyl]carbamoyl}phenyl)-3-cyanopyridin-2-yl]piperazine-1-carboxylate] | 74 | 282 | 46 | 19300 | –
7 | CN(CCn1cncn1)C(=O)c1ccc(-c2cnc(N3CCN(C(=O)OC(C)(C)C)CC3)c(C#N)c2)cc1Cl [Example 5-24, tert-butyl 4-[5-(3-chloro-4-{methyl[2-(1H-1,2,4-triazol-1-yl)ethyl]carbamoyl}phenyl)-3-cyanopyridin-2-yl]piperazine-1-carboxylate] | 71 | 118 | 52 | 8460 | –
8 | CC(O)CN(CC(C)O)C(=O)c1ccc(-c2cnc(N3CCN(C(=O)OC(C)(C)C)CC3)c(C#N)c2)cc1Cl (centres unmarked) [Example 5-25, tert-butyl 4-(5-{4-[bis(2-hydroxypropyl)carbamoyl]-3-chlorophenyl}-3-cyanopyridin-2-yl)piperazine-1-carboxylate] | 56 | 741 | 36 | 7890 | –
9 | CN(CCc1ccccc1)C(=O)c1ccc(-c2cnc(N3CCN(C(=O)OC(C)(C)C)CC3)c(C#N)c2)cc1Cl [Example 5-26, tert-butyl 4-(5-{3-chloro-4-[methyl(2-phenylethyl)carbamoyl]phenyl}-3-cyanopyridin-2-yl)piperazine-1-carboxylate] | 74 | 4270 | 48 | 25900 | –
10 | CN(CCc1ccncc1)C(=O)c1ccc(-c2cnc(N3CCN(C(=O)OC(C)(C)C)CC3)c(C#N)c2)cc1Cl [Example 5-27, tert-butyl 4-(5-{3-chloro-4-[methyl(2-pyridin-4-ylethyl)carbamoyl]phenyl}-3-cyanopyridin-2-yl)piperazine-1-carboxylate] | 76 | 705 | 17 | – | No IP
11 | Cc1nc(CCN(C)C(=O)c2ccc(-c3cnc(N4CCN(C(=O)OC(C)(C)C)CC4)c(C#N)c3)cc2Cl)no1 [Example 5-28, tert-butyl 4-[5-(3-chloro-4-{methyl[2-(5-methyl-1,2,4-oxadiazol-3-yl)ethyl]carbamoyl}phenyl)-3-cyanopyridin-2-yl]piperazine-1-carboxylate] | 84 | 164 | 71 | 3710 | –
12 | CN(CC(O)c1ccccc1)C(=O)c1ccc(-c2cnc(N3CCN(C(=O)OC(C)(C)C)CC3)c(C#N)c2)cc1Cl (centres unmarked) [Example 5-29, tert-butyl 4-(5-{3-chloro-4-[(2-hydroxy-2-phenylethyl)(methyl)carbamoyl]phenyl}-3-cyanopyridin-2-yl)piperazine-1-carboxylate] | 75 | 1170 | 30 | 6580 | –
13 | CC(C)(C)OC(=O)N1CCN(c2ncc(-c3ccc(C(=O)N(CCO)Cc4ccccc4)c(Cl)c3)cc2C#N)CC1 [Example 5-30, tert-butyl 4-(5-{4-[benzyl(2-hydroxyethyl)carbamoyl]-3-chlorophenyl}-3-cyanopyridin-2-yl)piperazine-1-carboxylate] | 73 | 1190 | 57 | 10000 | –
14 | CN(CC(O)c1ccc(O)cc1)C(=O)c1ccc(-c2cnc(N3CCN(C(=O)OC(C)(C)C)CC3)c(C#N)c2)cc1Cl (centres unmarked) [Example 5-31, tert-butyl 4-[5-(3-chloro-4-{[2-hydroxy-2-(4-hydroxyphenyl)ethyl](methyl)carbamoyl}phenyl)-3-cyanopyridin-2-yl]piperazine-1-carboxylate] | 67 | 1860 | 27 | 8530 | –
15 | C=CCN(C(=O)c1ccc(-c2cnc(N3CCN(C(=O)OC(C)(C)C)CC3)c(C#N)c2)cc1Cl)C1CCS(=O)(=O)C1 (centres unmarked) [Example 5-32, tert-butyl 4-(5-{3-chloro-4-[(1,1-dioxidotetrahydro-thiophen-3-yl)(prop-2-en-1-yl)carbamoyl]phenyl}-3-cyanopyridin-2-yl)piperazine-1-carboxylate] | 78 | 2210 | 44 | 23900 | –
16 | COc1ccc2nc(CCN(C)C(=O)c3ccc(-c4cnc(N5CCN(C(=O)OC(C)(C)C)CC5)c(C#N)c4)cc3Cl)[nH]c2c1 [Example 5-33, tert-butyl 4-[5-(3-chloro-4-{[2-(6-methoxy-1H-benzimidazol-2-yl)ethyl](methyl)carbamoyl}phenyl)-3-cyanopyridin-2-yl]piperazine-1-carboxylate] | 78 | 703 | 52 | 4830 | –
17 | CN(CCn1cncn1)C(=O)c1ccc(-c2cnc(N3CCN(C(=O)[C@](O)(c4ccccc4)C(F)(F)F)CC3)c(C#N)c2)cc1Cl [Example 6-1, 2-chloro-4-(5-cyano-6-{4-[(2R)-3,3,3-trifluoro-2-hydroxy-2-phenylpropanoyl]piperazin-1-yl}pyridin-3-yl)-N-methyl-N-[2-(1H-1,2,4-triazol-yl)ethyl]benzamide] | 101 | 2 | 33 | 1170 | –
